Results taken from the CheMixHub viscosity set.

Experiment: xn = mol fraction of the nth substance listed

Clc1ccccc1 + Cc1ccccc1
Details | viscosity [mPa·s]
293.15 K, 101 kPa, x1 = 0.0994 | 0.6134
293.15 K, 101 kPa, x1 = 0.2021 | 0.635
293.15 K, 101 kPa, x1 = 0.2979 | 0.6571
293.15 K, 101 kPa, x1 = 0.3973 | 0.6775
293.15 K, 101 kPa, x1 = 0.5013 | 0.7014
293.15 K, 101 kPa, x1 = 0.6023 | 0.7232
293.15 K, 101 kPa, x1 = 0.7024 | 0.7433
293.15 K, 101 kPa, x1 = 0.8007 | 0.7655
293.15 K, 101 kPa, x1 = 0.9047 | 0.786
293.15 K, 101 kPa, x2 = 0.2 | 0.751
293.15 K, 101 kPa, x2 = 0.4 | 0.709
293.15 K, 101 kPa, x2 = 0.6 | 0.667
293.15 K, 101 kPa, x2 = 0.8 | 0.626
294.55 K, 101.33 kPa, x1 = 0.2 | 0.6717
294.55 K, 101.33 kPa, x1 = 0.7 | 0.7968
294.75 K, 101.33 kPa, x1 = 0.3 | 0.6949
294.85 K, 101.33 kPa, x1 = 0.1 | 0.6367
295.05 K, 101.33 kPa, x1 = 0.4 | 0.7214
298.15 K, 101 kPa, x1 = 0.0994 | 0.5773
298.15 K, 101 kPa, x1 = 0.2021 | 0.5971
298.15 K, 101 kPa, x1 = 0.2979 | 0.6179
298.15 K, 101 kPa, x1 = 0.3973 | 0.6368
298.15 K, 101 kPa, x1 = 0.5013 | 0.6596
298.15 K, 101 kPa, x1 = 0.6023 | 0.6799
298.15 K, 101 kPa, x1 = 0.7024 | 0.6984
298.15 K, 101 kPa, x1 = 0.8007 | 0.7195
298.15 K, 101 kPa, x1 = 0.9047 | 0.7386
298.15 K, 101 kPa, x2 = 0.101 | 0.7515
298.15 K, 101 kPa, x2 = 0.2035 | 0.7315
298.15 K, 101 kPa, x2 = 0.243 | 0.687
298.15 K, 101 kPa, x2 = 0.3026 | 0.7086
298.15 K, 101 kPa, x2 = 0.4005 | 0.6929
298.15 K, 101 kPa, x2 = 0.45 | 0.646
298.15 K, 101 kPa, x2 = 0.5004 | 0.6721
298.15 K, 101 kPa, x2 = 0.6014 | 0.6486
298.15 K, 101 kPa, x2 = 0.643 | 0.608
298.15 K, 101 kPa, x2 = 0.7008 | 0.6321
298.15 K, 101 kPa, x2 = 0.803 | 0.577
298.15 K, 101 kPa, x2 = 0.8048 | 0.6088
298.15 K, 101 kPa, x2 = 0.8995 | 0.592
303.15 K, 101 kPa, x1 = 0.0994 | 0.5443
303.15 K, 101 kPa, x1 = 0.2021 | 0.5628
303.15 K, 101 kPa, x1 = 0.2979 | 0.5824
303.15 K, 101 kPa, x1 = 0.3973 | 0.5999
303.15 K, 101 kPa, x1 = 0.5013 | 0.6212
303.15 K, 101 kPa, x1 = 0.6023 | 0.6405
303.15 K, 101 kPa, x1 = 0.7024 | 0.6579
303.15 K, 101 kPa, x1 = 0.8007 | 0.6779
303.15 K, 101 kPa, x1 = 0.9047 | 0.6957
303.15 K, 101 kPa, x2 = 0.0961 | 0.6999
303.15 K, 101 kPa, x2 = 0.101 | 0.7125
303.15 K, 101 kPa, x2 = 0.193 | 0.6791
303.15 K, 101 kPa, x2 = 0.2035 | 0.6925
303.15 K, 101 kPa, x2 = 0.2907 | 0.6641
303.15 K, 101 kPa, x2 = 0.3026 | 0.6713
303.15 K, 101 kPa, x2 = 0.3894 | 0.6454
303.15 K, 101 kPa, x2 = 0.4005 | 0.6547
303.15 K, 101 kPa, x2 = 0.4889 | 0.63
303.15 K, 101 kPa, x2 = 0.5004 | 0.637
303.15 K, 101 kPa, x2 = 0.5893 | 0.6109
303.15 K, 101 kPa, x2 = 0.6014 | 0.6131
303.15 K, 101 kPa, x2 = 0.6906 | 0.5935
303.15 K, 101 kPa, x2 = 0.7008 | 0.5992
303.15 K, 101 kPa, x2 = 0.7928 | 0.5753
303.15 K, 101 kPa, x2 = 0.8048 | 0.577
303.15 K, 101 kPa, x2 = 0.8959 | 0.5561
303.15 K, 101 kPa, x2 = 0.8995 | 0.5584
303.25 K, 101.33 kPa, x1 = 0.7 | 0.7203
303.35 K, 101.33 kPa, x1 = 0.3 | 0.6272
303.55 K, 101.33 kPa, x1 = 0.1 | 0.5816
303.75 K, 101.33 kPa, x1 = 0.4 | 0.6426
304.15 K, 101.33 kPa, x1 = 0.2 | 0.6008
308.15 K, 101 kPa, x2 = 0.101 | 0.6704
308.15 K, 101 kPa, x2 = 0.2035 | 0.6518
308.15 K, 101 kPa, x2 = 0.3026 | 0.6334
308.15 K, 101 kPa, x2 = 0.4005 | 0.6181
308.15 K, 101 kPa, x2 = 0.5004 | 0.5983
308.15 K, 101 kPa, x2 = 0.6014 | 0.5769
308.15 K, 101 kPa, x2 = 0.7008 | 0.5641
308.15 K, 101 kPa, x2 = 0.8048 | 0.5447
308.15 K, 101 kPa, x2 = 0.8995 | 0.5279
313.05 K, 101.33 kPa, x1 = 0.3 | 0.5636
313.15 K, 101 kPa, x1 = 0.0994 | 0.4872
313.15 K, 101 kPa, x1 = 0.2021 | 0.503
313.15 K, 101 kPa, x1 = 0.2979 | 0.5205
313.15 K, 101 kPa, x1 = 0.3973 | 0.536
313.15 K, 101 kPa, x1 = 0.5013 | 0.5551
313.15 K, 101 kPa, x1 = 0.6023 | 0.5721
313.15 K, 101 kPa, x1 = 0.7024 | 0.5874
313.15 K, 101 kPa, x1 = 0.8007 | 0.6056
313.15 K, 101 kPa, x1 = 0.9047 | 0.6216
313.15 K, 101 kPa, x2 = 0.0961 | 0.6302
313.15 K, 101 kPa, x2 = 0.101 | 0.6317
313.15 K, 101 kPa, x2 = 0.193 | 0.6128
313.15 K, 101 kPa, x2 = 0.2 | 0.597
313.15 K, 101 kPa, x2 = 0.2035 | 0.6152
313.15 K, 101 kPa, x2 = 0.2907 | 0.5947
313.15 K, 101 kPa, x2 = 0.3026 | 0.5974
313.15 K, 101 kPa, x2 = 0.3894 | 0.5789
313.15 K, 101 kPa, x2 = 0.4 | 0.564
313.15 K, 101 kPa, x2 = 0.4005 | 0.5833
313.15 K, 101 kPa, x2 = 0.4889 | 0.5763
313.15 K, 101 kPa, x2 = 0.5004 | 0.5662
313.15 K, 101 kPa, x2 = 0.5893 | 0.5475
313.15 K, 101 kPa, x2 = 0.6 | 0.53
313.15 K, 101 kPa, x2 = 0.6014 | 0.545
313.15 K, 101 kPa, x2 = 0.6906 | 0.5414
313.15 K, 101 kPa, x2 = 0.7008 | 0.5312
313.15 K, 101 kPa, x2 = 0.7928 | 0.5159
313.15 K, 101 kPa, x2 = 0.8 | 0.498
313.15 K, 101 kPa, x2 = 0.8048 | 0.5134
313.15 K, 101 kPa, x2 = 0.8959 | 0.5005
313.15 K, 101 kPa, x2 = 0.8995 | 0.4983
313.25 K, 101.33 kPa, x1 = 0.1 | 0.5257
313.25 K, 101.33 kPa, x1 = 0.4 | 0.5837
313.35 K, 101.33 kPa, x1 = 0.2 | 0.5458
313.65 K, 101.33 kPa, x1 = 0.7 | 0.6385
322.55 K, 101.33 kPa, x1 = 0.3 | 0.5132
322.75 K, 101.33 kPa, x1 = 0.1 | 0.478
322.85 K, 101.33 kPa, x1 = 0.2 | 0.4964
323.15 K, 101 kPa, x2 = 0.0961 | 0.5575
323.15 K, 101 kPa, x2 = 0.193 | 0.5432
323.15 K, 101 kPa, x2 = 0.2907 | 0.531
323.15 K, 101 kPa, x2 = 0.3894 | 0.5111
323.15 K, 101 kPa, x2 = 0.4889 | 0.5008
323.15 K, 101 kPa, x2 = 0.5893 | 0.4829
323.15 K, 101 kPa, x2 = 0.6906 | 0.4715
323.15 K, 101 kPa, x2 = 0.7928 | 0.4539
323.15 K, 101 kPa, x2 = 0.8959 | 0.4396
323.15 K, 101.33 kPa, x1 = 0.4 | 0.5282
